The values that follow come from patent publication US20060024376A1, “Methods and compositions for reducing toxicity associated with leflunomide treatment” (The University of Chicago, priority 2004, published 2006).

The conditions of series [1]: background statement, cited from earlier work.
The test system of series [2] is heart transplants from Brown-Norway rats. Briefly: Heart transplant acute rejection: graft survival and inflammation score. It counts as in vivo, Lewis Rats. Conditions: for Graft survival / Inflammation score (Mean) (0-3): orotic acid 0 mg/kg/day; for Inflammation score (Mean) (0-3): 0 = no inflammation. The protocol: Treatments included 0, 5, 10 or 15 mg/kg of leflunomide in combination with 0 or 100 mg/kg orotic acid.

Series [3] in a line: Leflunomide toxicity measured by hematocrit. In kind it is in vivo, Lewis rats. The note with it: for Hct Week 0 / Hct Week 1 / Hct Week 2 / Hct Week 3 / Hct Week 4: individual rat; for Hct Week 0: baseline hematocrit; for Hct Week 1: week 1 of therapy; for Hct Week 2: week 2 of therapy; for Hct Week 3: week 3 of therapy; for Hct Week 4: week 4 of therapy. As for the experimental part: The experiment of Example 2 was repeated in Lewis rats and the hematocrit measured weekly for four weeks. The rats receiving treatment were divided into five groups wherein each group received 30/mg/kg/day leflunomide, a toxic, high dose. Group I received leflunomide only. Group II received the leflunomide dose plus 36/mg/kg/day of sodium orotate; group III received the leflunomide dose plus 100 mg/kg/day of sodium orotate; group IV received the leflunomide dose plus 88 mg/kg/day of orotic acid; and group V received the leflunomide dose plus 250 mg/kg/day of uridine given IP. A baseline hematocrit was measured, and hematocrits of each rat were measured at weeks 1-4 post commencement of therapy.

Several values for one entry are separate records, joined by “and”; a condition that tells them apart may be missing. Equal values may be shown once.

Consider `CC(=O)OC[C@H]1O[C@@H](n2ccc(=O)[nH]c2=O)[C@H](OC(C)=O)[C@@H]1OC(C)=O` [TAU, 2′, 3′, 5′-tri-O-acetyl uridine], for which, in series [1], the “oral bioavailability” value was “orally bioavailable”.
Consider `Cc1oncc1C(=O)Nc1ccc(C(F)(F)F)cc1` [leflunomide, N-(4-trifluoromethylphenyl)-5-methylisoxazol-4-carboxamide], for which, in series [2] (leflunomide 5 mg/kg/day), the Graft survival is reported as over 30 days and the “Inflammation score (Mean) (0-3)” value is 2.0. Moreover, in series [2] (leflunomide 10 mg/kg/day), the Graft survival is reported as over 30 days and the “Inflammation score (Mean) (0-3)” value was 1.7. Besides, in series [2] (leflunomide 15 mg/kg/day), the Graft survival is over 30 days and the “Inflammation score (Mean) (0-3)” value amounted to 1.5. In series [2] (leflunomide 5, 10, 15 mg/kg, dose-related), the “Intensity of the rejection reaction (inflammation score)” value is recorded as “reduced the intensity of the rejection reaction”. For the same compound, the “Hct Week 4, group Mean” value in series [3] (group mean, week 4) was “Mean: 23.8”. In series [3] (listed as L 30), the “Hct Week 0” value is 53 and 54 and 55 and 52; the “Hct Week 1” value is 53 and 55 and 49 and 50; the “Hct Week 2” value is 44 and 54 and 48 and 46; the “Hct Week 3” value was 41 and 37 (2×) and 33. In addition, in series [3] (listed as L 30), the “Hct Week 4” value was 30 (2×) and 24 and 22. For the same compound, in series [3] (listed as L30), the “Hct Week 0” value is 51 and 57; the “Hct Week 1” value was 47 and 52; the “Hct Week 2” value is 39 and 46; the “Hct Week 3” value was 31 and 33. In addition, the “Hct Week 4” value in series [3] (listed as L30) is 17 and 20.
With `O=C(O)c1cc(=O)[nH]c(=O)[nH]1` [orotic acid], in series [2] (orotic acid 100 mg/kg with leflunomide 5-15 mg/kg), the “Effect of orotic acid on efficacy of leflunomide to reduce the rejection reaction” value is “did not significantly affect the efficacy of leflunomide”. In series [1] (no test described), the bioavailability result is reported as “approximately 50%”.
